Measurements reported in patent US8653071B2, “α4β2 neuronal nicotinic acetylcholine receptor ligands” (Suven Life Sciences Limited, priority 2009, dated 2014).
Where a name gives a salt, the structure may show the parent alone.

Key:
[1] = biological target: Nicotinic Acetylcholine α4β2 Receptor (UniProt P09483+P12390); assay: Binding assay for human or rat nicotinic acetylcholine α4β2 receptor ([3H]Cytisine displacement); conditions: [3H]Cytisine 2.5 nM; rat brain frontal cortex or recombinant human receptor in CHO cells (not specified which); read-out: Ki
Procedure: Binding Assay for Human or Rat Nicotinic Acetylcholine α4β2 Receptor
• Receptor source: Rat brain frontal cortex or recombinant human cDNA expressed in CHO cells • Radioligand: [^3H]Cytisine 15-40 Ci/mmole • Final ligand concentration—[2.5 nM] • Non-specific determinant: Epibatidine—[0.1 μM] • Reference compound: Epibatidine • Positive control: Epibatidine Incubation Conditions:
Increasing concentrations of test compounds or standard were incubated with membrane receptors and radioligand in 120 mM NaCl, 2.5 mM KCl, 1 mM CaCl2, 1 mM MgCl2 and 50 mM TRIS-HCl (pH 7.4) for 60 minutes at room temperature. The reaction was terminated by rapid vacuum filtration onto the glass fiber filters. Radioactivity trapped onto the filters was determined and compared to the control values in order to ascertain any interactions of the test compound(s) with either cloned human or rat receptor binding site.
Literature Reference: Bunnelle W. H., Daanen J. F., Ryther K. B., Schrimpf M. R., Dart M. J., Gelain A., Meyer M. D., Frost J. M., Anderson D. J., Buckley M., Curzon P., Cao Y-J., Puttfarcken P., Searle X., Ji J., Putman C. B., Surowy C., Toma L. and Barlocco D. Structure-Activity Studies and Analgesic Efficacy of N-(3-Pyridinyl)-Bridged Bicyclic Diamines, Exceptionally Potent Agonists at Nicotinic Acetylcholine Receptors. J. Med. Chem. 2007, 50, […].

[2] = Rodent pharmacokinetic study; format: in vivo; conditions: Wistar, plasma, Wister rat/Male; for bioavailability: 5 mg/kg Per-Oral vs 5 mg/kg Intravenous; for AUC(0-t) / Cmax / Tmax / half-life: 5 mg/kg
Procedure: Rodent Pharmacokinetic Study
Three to five animals were housed in each cage. Animals were kept fasted over night and maintained on a 12 hours light/dark cycle. Three rats were dosed NCE orally (15 or 5 mg/kg) and intravenously (5 mg/kg) on day 0 and day 2
At each time point blood was collected by jugular vein. Plasma was stored frozen at −20° C. until analysis. The concentrations of the NCE compound in plasma were determined using LC-MS/MS method. Schedule time points: Pre dose 0.25, 0.5, 1, 1.5, 2, 3, 4, 6, 8, 10, 12 and 24 hours after dosing (n=3).
Pharmacokinetic parameters Cmax, Tmax, AUCt, T1/2 and Bioavailability were calculated by non-compartmental model using software WinNonlin version 5.0.1.

Male Wister rats = assay: Object recognition task model; format: in vivo, rat; conditions: p.o.; for Exploration time mean ± S.E.M, Familiar object / Exploration time mean ± S.E.M, Novel object: choice trial
Procedure: Object Recognition Task Model
The cognition-enhancing properties of compounds of this invention were estimated using a model of animal cognition: the object recognition task model.
Male Wister rats (230-280 grams) obtained from N. I. N. (National Institute of Nutrition, Hyderabad, India) was used as experimental animals. Four animals were housed in each cage. […] Also the rats were habituated to individual arenas for 1 hour in the absence of any objects.
One group of 12 rats received vehicle (1 mL/Kg) orally and another set of animals received compound of the formula (I) either orally or i.p., before one hour of the familiar (T1) and choice trial (T2).
The experiment was carried out in a 50×50×50 cm open field made up of acrylic. In the familiarization phase, (T1), the rats were placed individually in the open field for 3 minutes, in which two identical objects (plastic bottles, 12.5 cm height×5.5 cm diameter) covered in yellow masking tape alone (a1 and a2) were positioned in two adjacent corners, 10 cm. from the walls. After 24 hours of the (T1) trial for long-term memory test, the same rats were placed in the same arena as they were placed in T1 trial. Choice phase (T2) rats were allowed to explore the open field for 3 minutes in presence of one familiar object (a3) and one novel object (b) (Amber color glass bottle, 12 cm high and 5 cm in diameter). Familiar objects presented similar textures, colors and sizes. During the T1 and T2 trial, explorations of each object (defined as sniffing, licking, chewing or having moving vibrissae whilst directing the nose towards the object at a distance of less than 1 cm) were recorded separately by stopwatch. Sitting on an object was not regarded as exploratory activity, however, it was rarely observed.
T1 is the total time spent exploring the familiar objects (a1+a2).
T2 is the total time spent exploring the familiar object and novel object (a3+b).
The object recognition test was performed as described by Ennaceur, A., Delacour, J., 1988, A new one-trial test for neurobiological studies of memory in rats—Behavioural data, Behav. Brain Res., 31, 47-59.

| Ki [1] [nM] | Compound | further results |
| --- | --- | --- |
| 11.6 | NCC1CC2CC2N1C(=O)c1ccccn1 (stereo not drawn) [Example 37, (3-Aminomethyl-2-azabicyclo[3.1.0]hex-2-yl) pyridin-2-yl methanone tartrate] | – |
| 247 | CNCC1CC2CC2N1c1cncc(C(F)(F)F)c1 (stereo not drawn) [Example 30, N-(2-(3-trifluoromethylpyridin-5-yl)-2-azabicyclo[3.1.0]hex-3-ylmethyl) methylamine fumarate] | – |
| 681 | NCC1CC2CC2N1c1ccc(C(F)(F)F)nc1 (stereo not drawn) [Example 24, N-(2-(2-trifluoromethylpyridin-5-yl)-2-azabicyclo[3.1.0]hex-3-ylmethyl) amine fumarate] | – |
| 179 | CNCC1CC2CC2N1c1cncc(OC)c1 (stereo not drawn) [Example 14, N-[2-(5-Methoxypyridin-3-yl)-2-azabicyclo[3.1.0]hex-3-ylmethyl]methylamine fumarate] | – |
| 13 | CNCC1CC2CC2N1c1nccnc1O (stereo not drawn) [Example 20, N-[2-(3-Hydroxypyrazin-2-yl)-2-azabicyclo[3.1.0]hex-3-ylmethyl] methylamine] | – |
| 17.8 | NCC1CC2CC2N1C(=O)c1cncc(Br)c1 (stereo not drawn) [Example 36, (3-Aminomethyl-2-azabicyclo[3.1.0]hex-2-yl) (5-bromo pyridin-3-yl) methanone tartrate] | – |
| 45 | NCC1CC2CC2N1C(=O)c1cccnc1 (stereo not drawn) [Example 38, (3-Aminomethyl-2-aza bicyclo[3.1.0]hex-2-yl) pyridin-3-yl methanone tartarate] | – |
| 55 | NCC1CC2CC2N1C(=O)c1cc2ccccc2[nH]1 (stereo not drawn) [Example 34, (3-Aminomethyl-2-azabicyclo[3.1.0]hex-2-yl)-(1H-indol-2-yl)-methanone] | – |
| 38.3 | CNCC1CC2CC2N1C(=O)c1cc2ccccc2o1 (stereo not drawn) [Example 32, Benzofuran-2-yl-(3-methylaminomethyl-2-azabicyclo[3.1.0]hex-2-yl)methanone tartrate] | – |
| 451 | NCC1CC2CC2N1c1cncc(Sc2ccccc2)c1 (stereo not drawn) [Example 16, [2-(5-Phenylsulfanylpyridin-3-yl)-2-azabicyclo[3.1.0]hex-3-yl]methylamine fumarate] | – |
| 140 | NCC1CC2CC2N1c1cncc(C(F)(F)F)c1 (stereo not drawn) [Example 28, N-(2-(3-trifluoromethylpyridin-5-yl)-2-azabicyclo[3.1.0]hex-3-ylmethyl) amine fumarate] | – |
| 3000 | CNCC1CC2CC2N1C(=O)c1cc2cccc(Br)c2o1 (stereo not drawn) [Example 33, (7-Bromo benzofuran-2-yl)-(3-methylaminomethyl-2-azabicyclo[3.1.0]hex-2-yl) methanone tartrate] | – |
| 383 | CNCC1CC2CC2N1c1cncc(OC(C)C)c1 (stereo not drawn) [Example 15, N-[2-(5-Isopropoxypyridin-3-yl)-2-azabicyclo[3.1.0]hex-3-ylmethyl]methylamine] | – |
| 5.7 | Cc1cncc(N2C(CN)CC3CC32)c1 (stereo not drawn) [Example 26, N-(2-(3-methylpyridin-5-yl)-2-azabicyclo[3.1.0]hex-3-ylmethyl) amine fumarate] | – |
| 135 | NCC1CC2CC2N1c1cnc2ccccc2c1 (stereo not drawn) [Example 29, N-(2-(quinolin-3-yl)-2-azabicyclo[3.1.0]hex-3-ylmethyl) amine fumarate] | – |
| 6.9 | NCC1CC2CC2N1c1ccc(Cl)nc1 (stereo not drawn) [Example 25, N-(2-(2-chloropyridin-5-yl)-2-azabicyclo[3.1.0]hex-3-ylmethyl) amine fumarate] | – |
| 1650 | CNCC1CC2CC2N1c1cnc2ccccc2c1 (stereo not drawn) [Example 31, N-(2-(quinolin-3-yl)-2-azabicyclo[3.1.0]hex-3-ylmethyl) methylamine fumarate] | – |
| 41.7 | CNCC1CC2CC2N1C(=O)c1ccco1 (single isomer, unassigned) [Example 3, Furan-2-yl-(3-methylaminomethyl-2-azabicyclo[3.1.0]hex-2-yl)methanone tartarate] | – |
| 700 | CCNCC1CC2CC2N1c1cncc(Br)c1 (stereo not drawn) [Example 5, N-[2-(5-Bromopyridin-3-yl)-2-azabicyclo[3.1.0]hex-3-ylmethyl]ethylamine tartarate] | – |
| 109 | NCC1CC2CC2N1C(=O)c1ccncc1 (stereo not drawn) [Example 39, (3-Aminomethyl-2-aza-bicyclo[3.1.0]hex-2-yl) pyridin-4-yl methanone tartarate] | – |

| Compound | Ki [1] [nM] | further results |
| --- | --- | --- |
| CNCC1CC2CC2N1c1cncc(C)c1 (stereo not drawn) [Example 27, N-(2-(3-methylpyridin-5-yl)-2-azabicyclo[3.1.0]hex-3-ylmethyl)methyl amine bistartarate] | 253 | – |
| NCC1CC2CC2N1C(=O)c1ccco1.O=C(O)C(O)C(O)C(=O)O (stereo not drawn) [Example 35, (3-Aminomethyl-2-aza bicyclo[3.1.0]hex-2-yl) furan-2-yl methanone tartrate] | 38.7 | bioavailability [2]: 92 ± 8%; AUC(0-t) ([2]; Intravenous): 1420 ± 71 ng·h/mL; Cmax ([2]; Intravenous): 1780 ± 56 ng/mL; Tmax ([2]; Intravenous): 4.8 min; half-life ([2]; Intravenous): 67.8 ± 9 min; AUC(0-t) ([2]; Per-Oral): 1310 ± 146 ng·h/mL; Cmax ([2]; Per-Oral): 998 ± 175 ng/mL; Tmax ([2]; Per-Oral): 19.8 ± 8.4 min; half-life ([2]; Per-Oral): 89.4 ± 15.6 min; Inference (Male Wister rats; 0.3 mg/kg): Active; Exploration time mean ± S.E.M, Familiar object (Male Wister rats; 0.3 mg/kg): 5.30 ± 1.05 s; Exploration time mean ± S.E.M, Novel object (Male Wister rats; 0.3 mg/kg): 14.90 ± 7.74 s |
| NCC1CC2CC2N1c1cncnc1.O=C(O)/C=C/C(=O)O (stereo not drawn) [Example 22, N-(2-(pyrimidin-5-yl)-2-azabicyclo[3.1.0]hex-3-ylmethyl) amine fumarate] | 58.1 | bioavailability [2]: 89 ± 9%; AUC(0-t) ([2]; Intravenous): 2250 ± 228 ng·h/mL; Cmax ([2]; Intravenous): 1380 ± 156 ng/mL; Tmax ([2]; Intravenous): 15 min; half-life ([2]; Intravenous): 80.4 ± 4.2 min; AUC(0-t) ([2]; Per-Oral): 2020 ± 377 ng·h/mL; Cmax ([2]; Per-Oral): 1100 ± 211 ng/mL; Tmax ([2]; Per-Oral): 4.8 min; half-life ([2]; Per-Oral): 97.8 ± 6.6 min |
| CNCC1CC2CC2N1c1cncc(Cl)c1.O=C(O)/C=C/C(=O)O (stereo not drawn) [Example 12, N-[2-(5-Chloropyridin-3-yl)-2-azabicyclo[3.1.0]hex-3-ylmethyl]methylamine fumarate] | 77.3 | Inference (Male Wister rats; 1 mg/kg): Active; Exploration time mean ± S.E.M, Familiar object (Male Wister rats; 1 mg/kg): 4.651 ± 0.619 s; Exploration time mean ± S.E.M, Novel object (Male Wister rats; 1 mg/kg): 16.70 ± 2.136 s |
